# Source: ChEMBL document CHEMBL1122455, “(Mercaptopropanoyl)indoline-2-carboxylic acids and related compounds as potent angiotensin converting enzyme inhibitors and antihypertensive agents” (J Med Chem, 1983)
# Experiments:
# Rattus norvegicus [1] = assay: Dose required to lower blood pressure of SHR by 25 mmHg at 4-h post dose p.o.; assay type: functional; settings: po
# [2] = target: T1, Angiotensin-converting enzyme (Rattus norvegicus, UniProt P47820); assay: In vitro inhibitory activity against Angiotensin I converting enzyme
# T1 sequence (P47820 whole entry): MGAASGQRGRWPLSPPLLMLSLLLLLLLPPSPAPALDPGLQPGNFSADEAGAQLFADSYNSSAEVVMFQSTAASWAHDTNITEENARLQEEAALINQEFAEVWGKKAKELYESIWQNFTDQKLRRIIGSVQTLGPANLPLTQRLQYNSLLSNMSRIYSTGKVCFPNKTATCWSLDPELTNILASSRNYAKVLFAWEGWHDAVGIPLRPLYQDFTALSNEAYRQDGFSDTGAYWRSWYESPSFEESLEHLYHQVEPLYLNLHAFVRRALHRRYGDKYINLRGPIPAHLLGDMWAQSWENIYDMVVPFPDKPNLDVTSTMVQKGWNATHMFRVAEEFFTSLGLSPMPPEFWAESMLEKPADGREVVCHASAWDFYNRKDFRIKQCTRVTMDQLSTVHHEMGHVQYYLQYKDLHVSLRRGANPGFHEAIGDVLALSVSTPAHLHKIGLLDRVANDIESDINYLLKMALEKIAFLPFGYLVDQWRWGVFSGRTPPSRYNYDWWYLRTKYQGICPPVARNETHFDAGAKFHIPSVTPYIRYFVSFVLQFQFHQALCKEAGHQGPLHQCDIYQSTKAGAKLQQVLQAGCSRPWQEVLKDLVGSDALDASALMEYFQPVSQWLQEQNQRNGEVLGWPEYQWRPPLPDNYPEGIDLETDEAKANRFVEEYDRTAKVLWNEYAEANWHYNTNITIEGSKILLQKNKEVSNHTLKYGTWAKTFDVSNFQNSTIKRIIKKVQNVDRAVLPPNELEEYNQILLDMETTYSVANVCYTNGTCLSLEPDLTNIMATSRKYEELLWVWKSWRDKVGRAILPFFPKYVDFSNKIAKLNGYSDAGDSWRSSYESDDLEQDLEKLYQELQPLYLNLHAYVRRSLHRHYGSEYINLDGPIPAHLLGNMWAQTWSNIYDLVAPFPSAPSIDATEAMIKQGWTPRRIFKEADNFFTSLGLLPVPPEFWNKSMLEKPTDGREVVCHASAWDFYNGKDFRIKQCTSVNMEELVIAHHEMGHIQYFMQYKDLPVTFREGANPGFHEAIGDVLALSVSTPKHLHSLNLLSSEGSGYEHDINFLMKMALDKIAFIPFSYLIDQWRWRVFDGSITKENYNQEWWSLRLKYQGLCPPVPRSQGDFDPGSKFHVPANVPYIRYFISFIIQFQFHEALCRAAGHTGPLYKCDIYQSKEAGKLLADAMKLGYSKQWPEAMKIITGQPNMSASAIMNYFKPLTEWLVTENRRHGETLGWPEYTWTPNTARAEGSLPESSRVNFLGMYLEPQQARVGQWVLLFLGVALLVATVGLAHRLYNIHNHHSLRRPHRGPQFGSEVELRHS
# Rattus norvegicus [3] = assay: Dose required to inhibit 50% of the angiotensin I induced vasopressor response p.o.; assay type: functional; settings: po, read-out: ID50 (the source's name)
Compound,ED25 (Rattus norvegicus [1]) [mg/kg],IC50 [2] [µM],ED50 (Rattus norvegicus [3]) [mg/kg]
C[C@@H]1CSC(=O)[C@@H]2Cc3ccccc3N2C1=O,2,0.014,–
CCc1ccc2c(c1)CC(C(=O)O)N2C(=O)C(C)CSC(=O)c1ccccc1 (stereo not drawn),> 100,0.03,–
C=CC(=O)N1c2ccccc2CC1C(=O)O (stereo not drawn),–,> 1000,–
CC(=O)SCC(C)C(=O)N1c2ccccc2CC1C(=O)O (stereo in doubt; form 2),13,0.011,–
CC(=O)SCC(C)C(=O)N1c2ccccc2CC1C(=O)O (stereo in doubt; form 1),–,15,–
CC(CSC(=O)c1ccccc1)C(=O)N1c2ccccc2CC1C(=O)O (stereo in doubt; form 2),–,0.078,–
C1CCC(NC2CCCCC2)CC1.C[C@@H](CSC(=O)c1ccccc1)C(=O)N1c2ccccc2C[C@H]1C(=O)O,39,0.54,–
C=C(C)C(=O)N1c2ccc(OC)cc2CC1C(=O)O (stereo not drawn),–,> 1000,–
C[C@@H]1CSC(=O)[C@H]2Cc3ccccc3N2C1=O,–,20,–
C[C@H](CS)C(=O)N1CCC[C@H]1C(=O)O [CAPTOPRIL],17.8,–,0.57
C[C@H](CSC(=O)c1ccccc1)C(=O)N1c2ccccc2C[C@H]1C(=O)O [listing 1 of 2 here],–,0.32,–
C[C@H](CSC(=O)c1ccccc1)C(=O)N1c2ccccc2C[C@H]1C(=O)O [listing 2 of 2 here],1.03,0.038,2
C=C(C)C(=O)N1c2ccccc2CC1C(=O)O (stereo not drawn),–,> 1000,–
C[C@@H](CSC(=O)c1ccccc1)C(=O)N1c2ccccc2C[C@@H]1C(=O)O [listing 1 of 2 here],–,> 100,–
COc1ccc2c(c1)CC(C(=O)O)N2C(=O)C(C)CSC(=O)c1ccccc1 (stereo not drawn) [listing 1 of 2 here],–,0.094,–
C=C(C)C(=O)N1c2ccccc2C[C@H]1C(=O)O,–,> 100,–
C[C@@H](CSC(=O)c1ccccc1)C(=O)N1c2ccccc2C[C@H]1C(=O)O (racemic),–,3.5,–
C[C@@H](CSC(=O)c1ccccc1)C(=O)N1c2ccccc2C[C@@H]1C(=O)O (racemic),100,1.2,–
C[C@@H](CSC(=O)c1ccccc1)C(=O)N1c2ccccc2C[C@H]1C(=O)O,–,0.38,–
C1CCC(NC2CCCCC2)CC1.COc1ccc2c(c1)C[C@@H](C(=O)O)N2C(=O)[C@H](C)CSC(=O)c1ccccc1,20,0.042,–
CC(CSC(=O)c1ccccc1)C(=O)N1c2ccccc2CC1C(=O)O (stereo in doubt; form 1),–,0.41,–
C[C@H](CSC[C@@H](C)C(=O)N1c2ccccc2C[C@H]1C(=O)O)C(=O)N1c2ccccc2C[C@H]1C(=O)O,24,1.3,–
O=C(SCCC(=O)N1c2ccccc2CC1C(=O)O)c1ccccc1 (stereo not drawn),12.5,0.059,1.95
C=C(C)C(=O)N1c2ccccc2C[C@@H]1C(=O)O,–,> 1000,–
C[C@@H](CSC(=O)c1ccccc1)C(=O)N1c2ccccc2C[C@@H]1C(=O)O [listing 2 of 2 here],–,> 100,–
COc1ccc2c(c1)CC(C(=O)O)N2C(=O)C(C)CSC(=O)c1ccccc1 (stereo not drawn) [listing 2 of 2 here],–,0.097,–
